Reference: patent publication US9796700B2 (Celgene CAR LLC, priority 2013, dated 2017)

How the values were obtained:
[1] = system: p-RSK (ERK activity) in cells after compound washout; test: Measurement of duration of action of test compounds (pRSK after washout); format: cell-based; settings: 6 hr after compound washout
Protocol: The protocol below describes an assay to measure the kinase activity of ERK1 to phosphorylate its substrate, RSK, in the presence of a test compound. This experiment was conducted using a Mesoscale Discovery plate. The day before the assay, HT29 cells were split and plated at 50,000 cells/well in complete growth media. After allowing cells to adhere, the media was removed and replaced with media containing 0.1% FBS and incubated overnight. Blank MDS plates were coated with 25 μl/well RSK capture antibody and incubated at 4° C. overnight. The next day, the media was removed and replaced with 100 μl of media containing a test compound and incubated for 120 minutes at 37° C. The media was removed and replaced with 55 μl of well lysis buffer with protease and phosphatase inhibitors provided in the kit, followed by incubation at 4° C. for 30 minutes. 50 μl of lysate was transferred to a blocked MSD plate, followed by incubation at room temperature for 2 hours under constant shaking. The plate was washed 3 times with MSD wash buffer (cat#R617TX), and 25 μl/well phospho-RSK (pRSK) detection antibody was added with an appropriate Sulfo-tagged anti-species detection antibody diluted in 1% BSA in MSD wash buffer. This mixture was incubated for 1 hour at room temperature under constant shaking. The plate was washed 3 times, and 150 μl 1×MSD read buffer was added, followed by signal detection in an MSD plate reader.
Measurement of Duration of Action of Test Compounds
One day before the assay, the cells were split and added at 50,000 cells per well in flat-bottom 96 well plate in 200 μl of growth media. The next day, the medium was discarded, 100 μl medium containing test compounds was added, and the plate was incubated at 37° C. for 120 minutes. The medium was discarded, and the cells were rinsed 3 times with PBS followed by addition of 200 μl of fresh grow medium. The plate was returned to a 37° C. incubator, and separate cell lysates were made using MSD lysis buffer after 0.25, 0.5, 1, 2, 4, 6, 8 and 18 or 24 hours. Thereafter, pRSK was measured as described above in the section entitled pRSK MSD Assay. The data is presented in Table A under the column titled “p-RSK inhibition at 6 hr (%).”

MEK1 activated ERK1 = MEK1 activated ERK1 (Homo sapiens (Human), UniProt P27361); test: Omnia continuous-read kinase assay for potency against MEK1 activated ERK1; format: biochemical; settings: MEK1 activated ERK1, WT, ATP at KM
Method in brief: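 Apparent IC50 came from initial reaction slopes (RFU vs time) plotted against log inhibitor with a variable-slope fit. Reactions were started with ERK1 (4 nM final) added to 50 μM ATP, roughly at its appKM, and 10 μM Sox-conjugated ST17 peptide in 20 mM Tris pH 7.5, 5 mM MgCl2. Fluorescence was monitored every 71 seconds.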

Erk1 [2] = target: T1, Erk1 (Homo sapiens (Human), UniProt P27361); test: Protein Mass Modification Assay (intact protein MALDI); format: binding
Method in brief: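 Percent covalent modification comes from the intact-protein MALDI centroid mass shift, treated versus control, divided by compound MW. Before analysis, human Erk1 was exposed to compound at 10-fold excess over protein for 60 min at room temperature.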
Target sequence in this assay (P27361 whole entry, looked up): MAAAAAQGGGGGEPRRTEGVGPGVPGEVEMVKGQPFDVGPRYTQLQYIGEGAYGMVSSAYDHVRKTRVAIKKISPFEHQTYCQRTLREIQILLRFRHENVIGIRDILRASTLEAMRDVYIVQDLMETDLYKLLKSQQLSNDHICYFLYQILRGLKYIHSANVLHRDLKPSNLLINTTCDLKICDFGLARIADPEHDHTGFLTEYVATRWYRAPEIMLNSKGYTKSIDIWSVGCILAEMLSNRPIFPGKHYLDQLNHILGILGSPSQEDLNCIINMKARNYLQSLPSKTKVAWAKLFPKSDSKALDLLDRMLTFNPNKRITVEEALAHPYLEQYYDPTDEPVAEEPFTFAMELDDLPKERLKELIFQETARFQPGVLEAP

Erk1 [3] = target: T1, Erk1; test: Measurement of Erk occupancy with biotinylated covalent probe I-299; format: cell-based; settings: HT-29 cells
Protocol: Measurement of Erk Occupancy with Biotinylated Covalent Probe
This experiment measured occupancy of the ERK1 target by compounds according to the invention. This experiment was conducted using the Mesoscale Discovery test kit (Cat. #N45107B). One day before the assay, cells were split and added at 50,000 cells per well to a flat-bottom 96 well plate in 200 μl of growth medium. The next day, the medium was discarded, 100 μl medium containing test compound was added, and the plate was incubated at 37° C. for 120 minutes. The plate was rinsed once with PBS, and 50 μl lysis buffer with test compound was added. The plate was incubated at 4° C. for 30 min, and 30 μl of lysate was transferred to a plate to capture total and phosphor-Erk. Biotinylated probe I-299 was diluted in lysis buffer and added to each well to a final concentration of 0.2 μM. The plate was incubated for 2 hr under constant shaking at room temperature. The plate was washed 3 times with MSD wash buffer. To detect the biotinylated probe bonding, tagged streptavidin was added (MSD, Cat#R32AD-1) at 1 μg/ml, 25 μl/well, followed by a 60 min incubation under shaking. The plate was washed 3 times, 150 μl MSD Read Buffer (Cat#R61TX) was added and the plate was read in a plate reader manufactured by MSD. Percent occupancy by test compound at Erk was calculated by comparing the chemiluminescence readings from treated cells as compared to the chemiluminescence readings in untreated controls (which are defined as 100% probe bonding or 0% occupancy). The amount of covalent probe signal divided by the amount of ERK signal for samples with no test compound treatment represents the maximum probe signal (MPS). In samples treated with test compound prior to covalent probe, the ratio of probe signal to ERK signal (the test probe signal, TPS) was reduced by the degree of target occupancy by the test compound which blocks covalent probe binding. The difference between the MPS and the TPS, divided by the MPS gave the target occupancy by the test compound. This ratio was then expressed as a percent occupancy. Results from this assay are provided in Table A below under the column “Occupancy EC50 (nM) HT-29.”
Target sequence in this assay (P27361 2-379 limits assumed): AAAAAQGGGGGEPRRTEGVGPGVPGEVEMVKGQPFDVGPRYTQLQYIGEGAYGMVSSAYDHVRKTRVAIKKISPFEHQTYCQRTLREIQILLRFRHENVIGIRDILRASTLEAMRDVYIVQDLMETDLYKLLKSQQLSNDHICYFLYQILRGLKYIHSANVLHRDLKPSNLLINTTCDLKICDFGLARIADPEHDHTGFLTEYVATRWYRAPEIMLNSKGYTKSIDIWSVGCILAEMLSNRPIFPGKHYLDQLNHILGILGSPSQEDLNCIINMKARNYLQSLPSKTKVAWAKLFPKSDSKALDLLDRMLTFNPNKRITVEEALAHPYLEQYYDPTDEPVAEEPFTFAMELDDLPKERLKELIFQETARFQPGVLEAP

[4] = system: ERK1 phosphorylation of its substrate RSK in HT29 cells; test: pRSK MSD Assay in HT29 cells; format: cell-based; settings: Homo sapiens, HT-29, HT29 cells; read-out: ERK1 PRSK MSD HT29 EC50
Method in brief: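 HT29 cells were serum-starved overnight in 0.1% FBS, then treated with compound for 120 min at 37 °C. Lysates were assayed on MSD plates with RSK capture and phospho-RSK detection antibodies using electrochemiluminescence read-out.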

Chain of MEK1 activated ERK1 (P27361 whole entry): as the sequence (P27361 whole entry, looked up) above

SMILES | p-RSK inhibition at 6 hr (%) [1] | IC50 (MEK1 activated ERK1) [nM] | ERK1 Mass Mod (%) (Erk1 [2]) | EC50 (Erk1 [3]) [nM] | EC50 [4] [nM]
C=CC(=O)Nc1cc(C)ccc1Nc1nc(Nc2cc(OC)ncc2C)ncc1Cl [Compound I-241, N-(2-((5-chloro-2-((2-methoxy-5-methylpyridin-4-yl)amino)pyrimidin-4-yl)amino)-5-methylphenyl)acrylamide] | E (provided a p-RSK inhibition percent of ≧70%) | < 100 | E (provided a mass modification of ≧70%) | – | –
C=CC(=O)Nc1cc(C)ccc1Nc1nc(Nc2cc(C(N)=O)ccc2C)ncc1Cl [Compound I-229, 3-((4-((2-acrylamido-4-methylphenyl)amino)-5-chloropyrimidin-2-yl)amino)-4-methylbenzamide] | E (provided a p-RSK inhibition percent of ≧70%) | < 100 | E (provided a mass modification of ≧70%) | – | –
C=CC(=O)Nc1ccccc1Nc1nc(Nc2cc(C(N)=O)ccc2C)ncc1C(F)(F)F [Compound I-68, 3-(4-(2-Acrylamidophenylamino)-5-(trifluoromethyl)pyrimidin-2-ylamino)-4-methylbenzamide] | E (provided a p-RSK inhibition percent of ≧70%) | < 100 | E (provided a mass modification of ≧70%) | < 100 | –
C=CC(=O)Nc1cc(OC)ccc1Nc1nc(Nc2cc(OC)ncc2C)ncc1Cl [Compound I-242, N-(2-((5-chloro-2-((2-methoxy-5-methylpyridin-4-yl)amino)pyrimidin-4-yl)amino)-5-methoxyphenyl)acrylamide] | E (provided a p-RSK inhibition percent of ≧70%) | < 100 | E (provided a mass modification of ≧70%) | – | –
C=CC(=O)Nc1ccccc1Nc1nc(Nc2cc(OC)ncc2C)ncc1Cl [Compound I-240, N-(2-((5-chloro-2-((2-methoxy-5-methylpyridin-4-yl)amino)pyrimidin-4-yl)amino)phenyl)acrylamide] | E (provided a p-RSK inhibition percent of ≧70%) | < 100 | E (provided a mass modification of ≧70%) | – | –
C=CC(=O)Nc1ccccc1Nc1nc(Nc2cc(OC)ncc2C)ncc1C(F)(F)F [Compound I-85, N-(2-((2-((2-Methoxy-5-methylpyridin-4-yl)amino)-5-(trifluoromethyl)pyrimidin-4-yl)amino)phenyl)acrylamide] | E (provided a p-RSK inhibition percent of ≧70%) | 101 to 500 | G (proived a mass modification ≦30%) | – | –
C=CC(=O)Nc1ccccc1Nc1nc(Nc2cncc(OC)c2)ncc1C(F)(F)F [Compound I-86, N-(2-((2-((5-Methoxypyridin-3-yl)amino)-5-(trifluoromethyl)pyrimidin-4-yl)amino)phenyl)acrylamide] | E (provided a p-RSK inhibition percent of ≧70%) | < 100 | – | – | –
C=CC(=O)Nc1ccccc1Nc1nc(N[C@H]2CCCN(C(=O)CO)C2)ncc1C(F)(F)F [Compound I-15, (S)—N-(2-((2-((1-(2-hydroxyacetyl)piperidin-3-yl)amino)-5-(trifluoromethyl)pyrimidin-4-yl)amino)phenyl)acrylamide] | E (provided a p-RSK inhibition percent of ≧70%) | < 100 | E (provided a mass modification of ≧70%) | – | < 100
C=CC(=O)Nc1cc(C)ccc1Nc1nc(N[C@H]2CCCN(C(=O)CO)C2)ncc1Cl [Compound I-140, (S)—N-(2-((5-chloro-2-((1-(2-hydroxyacetyl)piperidin-3-yl)amino)pyrimidin-4-yl)amino)-5-methylphenyl)acrylamide] | F (provided a p-RSK inhibition percent of 31-69%) | < 100 | E (provided a mass modification of ≧70%) | – | –
